What was measured:
PIK3CA = target: T1, PIK3CA (Homo sapiens, UniProt P42336); test: In vitro ELISA target engagement assay for PIK3CA in Jurkat cellular lysate (competition with PIK3CA Biotin Probe); format: binding; conditions: 1 hour at rt, then 500 nM PIK3CA Biotin Probe, read-out: Elisa Target Engagement Assay (TE50)
T1 construct: endogenous in cells; host or cells: Jurkat cell lysate
How it was run: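 Jurkat lysate from sonicated frozen cells was preincubated 1 h at rt with serially diluted compound up to 200 μM, then labelled 1 h at rt with PIK3CA biotin probe at 500 nM final. Probe-bound PIK3CA was captured on antibody-coated plates and detected with Neutravidin-HRP luminescence; TE50 derived from the dose response.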

[1] = tested on: pAKT(S473) in H358 cell line; test: In vitro Phospho-AKT(S473) HTRF analysis in H358 cells; format: cell-based; conditions: for IC50 / Emax: Homo sapiens, NCI-H358, 0.5 h; for IC50: H358 cells, 30 minutes at 37° C.; for Emax: read-out: H358 pAKT Imax % control
Method: Example 5. In Vitro Phosgho-AKT(S473) Analysis
Functional activity of the compounds to inhibit pAKT were assessed in FaDu or H358 cell lines as indicated below.
• Complete Media • FBS, Corning catalog #35-010-CV • Anti-Anti, Gibco catalog #15240-062 • 96 well plate, Corning catalog #3610 • TrypLE, Gibco catalog #12604013 • Phospho-AKT(S473) HTRF kit, Cisbio catalog #64AKSPET
Cells were detached from the tissue culture flask with TrypLE. The cells were pelleted at 500×g for 5 min, TrypLe was removed and then resuspended in the necessary volume of media+1% FBS to give the appropriate cell density (17,500 cells/mL for FaDu; 20,000 cells/mL for H358). 100 μL of cell suspension/well was dispensed into the 96-well plate while keeping the outer wells of the plate free of cells and filled with PBS to prevent evaporation of interior wells. The plate was incubated at 37° C. and allowed to adhere overnight. The cells were treated with a dose response of compound and incubated at 37° C. for 30 minutes. The cells were then processed and pAKT(S473) levels were assessed following the specifications of the Cisbio HTRF kit.

[2] = tested on: pAKT(S473) in FaDu cell line; test: In vitro Phospho-AKT(S473) HTRF analysis in FaDu cells; format: cell-based; conditions: for IC50 / Emax: Homo sapiens, 0.5 h; for IC50: FaDu cells, 30 minutes at 37° C.; for Emax: FaDu, read-out: FaDu pAKT Imax % control
How it was run: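 FaDu or H358 cells were plated overnight in medium with 1% FBS, then exposed to a compound dose response for 30 minutes at 37° C. Phospho-AKT(S473) levels were measured by HTRF.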

PIK3CA_C242 = target: T2, PIK3CA_C242 (Homo sapiens, UniProt P42336); test: Proteomic TE50 (IA-DTB / TMT mass spectrometry) in Jurkat cell lysate; format: binding; conditions: 1 hour at rt, 7-point dose response
T2 construct: endogenous in cells; host or cells: Jurkat cell lysate
How it was run: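 Jurkat lysate (500 μg) treated with compound (7-point, 1:5 dilutions) for 1 h at rt, then labelled with 200 μM IA-DTB for 1 h. After digestion and streptavidin enrichment, the C242 peptide was quantified by targeted MS3 TMT. TE50 was derived from reporter-ion S/N dose-response curves.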

T1 sequence (P42336 whole entry): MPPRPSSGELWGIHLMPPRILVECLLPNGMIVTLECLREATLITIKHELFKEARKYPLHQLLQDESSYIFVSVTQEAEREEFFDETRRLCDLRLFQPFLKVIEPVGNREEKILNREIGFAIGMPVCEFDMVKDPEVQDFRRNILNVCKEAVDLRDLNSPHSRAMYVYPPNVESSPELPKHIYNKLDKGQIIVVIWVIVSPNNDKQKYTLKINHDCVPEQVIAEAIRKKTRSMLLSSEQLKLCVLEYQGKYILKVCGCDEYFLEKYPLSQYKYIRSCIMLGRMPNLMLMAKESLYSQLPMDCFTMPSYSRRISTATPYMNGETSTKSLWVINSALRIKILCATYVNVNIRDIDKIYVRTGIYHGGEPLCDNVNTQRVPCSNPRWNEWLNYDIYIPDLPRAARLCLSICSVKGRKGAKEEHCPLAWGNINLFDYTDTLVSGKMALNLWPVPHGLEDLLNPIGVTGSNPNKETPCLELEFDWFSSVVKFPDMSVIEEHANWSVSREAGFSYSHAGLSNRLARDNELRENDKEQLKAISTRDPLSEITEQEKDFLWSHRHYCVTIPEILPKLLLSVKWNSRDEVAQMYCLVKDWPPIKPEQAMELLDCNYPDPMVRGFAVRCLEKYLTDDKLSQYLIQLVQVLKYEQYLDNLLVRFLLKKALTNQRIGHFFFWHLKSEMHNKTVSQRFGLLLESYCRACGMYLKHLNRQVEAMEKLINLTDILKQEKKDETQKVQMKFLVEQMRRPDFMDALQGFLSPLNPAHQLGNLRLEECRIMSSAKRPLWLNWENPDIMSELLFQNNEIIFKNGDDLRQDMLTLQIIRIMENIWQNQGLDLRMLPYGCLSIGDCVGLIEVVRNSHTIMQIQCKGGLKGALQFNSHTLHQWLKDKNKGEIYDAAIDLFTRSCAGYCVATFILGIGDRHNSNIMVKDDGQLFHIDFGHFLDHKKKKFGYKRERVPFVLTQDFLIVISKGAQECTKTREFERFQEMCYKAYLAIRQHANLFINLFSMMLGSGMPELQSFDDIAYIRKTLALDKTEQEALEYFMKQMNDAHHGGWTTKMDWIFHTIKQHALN
T1 sequence (P27986 whole entry partner): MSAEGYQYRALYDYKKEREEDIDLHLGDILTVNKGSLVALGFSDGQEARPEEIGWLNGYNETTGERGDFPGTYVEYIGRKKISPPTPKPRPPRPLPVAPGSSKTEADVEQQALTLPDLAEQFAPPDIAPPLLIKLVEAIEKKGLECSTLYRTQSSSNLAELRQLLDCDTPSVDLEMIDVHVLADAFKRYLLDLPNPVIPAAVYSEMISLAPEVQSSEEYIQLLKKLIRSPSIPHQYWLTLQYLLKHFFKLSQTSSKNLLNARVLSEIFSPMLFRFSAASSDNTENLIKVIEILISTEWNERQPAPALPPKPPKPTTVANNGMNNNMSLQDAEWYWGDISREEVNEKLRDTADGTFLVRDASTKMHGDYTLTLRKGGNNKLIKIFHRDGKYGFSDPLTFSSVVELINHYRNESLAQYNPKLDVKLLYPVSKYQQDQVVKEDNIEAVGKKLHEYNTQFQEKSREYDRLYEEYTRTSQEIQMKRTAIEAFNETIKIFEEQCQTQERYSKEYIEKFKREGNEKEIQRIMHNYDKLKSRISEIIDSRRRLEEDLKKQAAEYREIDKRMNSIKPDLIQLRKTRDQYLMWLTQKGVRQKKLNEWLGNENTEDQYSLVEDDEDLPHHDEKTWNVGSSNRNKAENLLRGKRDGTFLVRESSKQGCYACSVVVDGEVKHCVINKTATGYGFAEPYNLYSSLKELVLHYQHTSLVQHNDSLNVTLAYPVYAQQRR
T2 sequence (P42336 whole entry): as the sequence (P42336 whole entry) above
T2 sequence (P27986 whole entry partner): as the sequence (P27986 whole entry partner) above

SMILES | IC50 (PIK3CA) [nM] | IC50 [1] [nM] | IC50 [2] [nM] | IC50 (PIK3CA_C242) [nM] | Emax [1] [%] | Emax [2] [%] | absolute inhibition of pAKT ([1]; H358 cell line, internal standard, variation between runs) | absolute inhibition of pAKT ([2]; FaDu cell line, internal standard, variation between runs)
C[C@H](/C=C\S(C)(=O)=O)NC(=O)[C@@]1(F)CCCN(C(=O)[C@H]2CN(CC(F)(F)F)C[C@H]2c2ccccc2F)CC1 (single isomer, unassigned) [Compound 223, (R)-4-fluoro-1-((3*R,4*R)-4-(2-fluorophenyl)-1-(2,2,2-trifluoroethyl)pyrrolidine-3-carbonyl)-N-((R,Z)-4-(methylsulfonyl)but-3-en-2-yl) azepane-4-carboxamide] | 510 | 346 | – | – | 87.5 | – | – | –
Cc1ccccc1[C@@H]1CN(CC(F)(F)F)C[C@@H]1C(=O)N1CCC[C@](F)(C(=O)N[C@H](C)/C=C\S(C)(=O)=O)CC1 (single isomer, unassigned) [Compound 224, (R)-4-fluoro-N-((R,Z)-4-(methylsulfonyl)but-3-en-2-yl)-1-((3*R,4*R)-4-(o-tolyl)-1-(2,2,2-trifluoroethyl)pyrrolidine-3-carbonyl) azepane-4-carboxamide] | 520 | 326 | – | – | 81.2 | – | – | –
C[C@H]1C[C@](F)(C(=O)N[C@@H]2C=CS(=O)(=O)C2)CCN1C(=O)[C@@H]1CN(CC(C)(F)F)C[C@@H]1c1cccc(F)c1Cl (single isomer, unassigned) [Compound 225, (2*S,4*S)-1-((3*S,4*S)-4-(2-chloro-3-fluorophenyl)-1-(2,2-difluoropropyl)pyrrolidine-3-carbonyl)-N-((R)-1,1-dioxido-2,3-dihydrothiophen-3-yl)-4-fluoro-2-methylpiperidine-4-carboxamide] | 640 | 465 | – | – | 78.8 | – | – | –
C[C@H](/C=C\S(C)(=O)=O)NC(=O)[C@@]1(F)CCCCN(C(=O)[C@H]2CN(CC(F)(F)F)C[C@H]2c2ccccc2Cl)CC1 (single isomer, unassigned) [Compound 272, (*R)-1-((3R,4R)-4-(2-chlorophenyl)-1-(2,2,2-trifluoroethyl)pyrrolidine-3-carbonyl)-4-fluoro-N-((R,Z)-4-(methylsulfonyl)but-3-en-2-yl)azocane-4-carboxamide] | 880 | 694 | – | – | 89.8 | – | – | –
C[C@H](/C=C\S(C)(=O)=O)NC(=O)C1(F)CCN(S(=O)(=O)c2ccc(Br)cc2-c2ccccc2Cl)CC1 [Compound 47, 1-[4-bromo-2-(2-chlorophenyl)phenyl]sulfonyl-4-fluoro-N—[(Z,1R)-1-methyl-3-methylsulfonyl-allyl]piperidine-4-carboxamide] | – | – | 96.5 | – | – | 100 | 40-89% | 43-98%
COc1ccc(Cl)c(-c2cc(Cl)ncc2S(=O)(=O)N2CCC(F)(C(=O)N[C@H](C)/C=C\S(C)(=O)=O)CC2)c1 [Compound 217, (R,Z)-1-((6-chloro-4-(2-chloro-5-methoxyphenyl)pyridin-3-yl)sulfonyl)-4-fluoro-N-(4-(methylsulfonyl)but-3-en-2-yl)piperidine-4-carboxamide] | 1450 | 953 | – | 980 | 74.6 | – | – | –
C[C@@H](/C=C\S(C)(=O)=O)NC(=O)[C@@]1(F)CCCN(C(=O)[C@H]2CN(CC(F)(F)F)C[C@H]2c2c(F)cccc2Cl)CC1 [Compound 297, (R)-1-((3R,4R)-4-(2-chloro-6-fluorophenyl)-1-(2,2,2-trifluoroethyl)pyrrolidine-3-carbonyl)-4-fluoro-N-((S,Z)-4-(methylsulfonyl)but-3-en-2-yl)azepane-4-carboxamide] | 910 | 1500 | – | – | 87.6 | – | – | –
C[C@H](/C=C\S(C)(=O)=O)NC(=O)C1(F)CCN(C(=O)[C@H]2CN(CC(F)(F)F)C[C@H]2c2ccccc2Cl)C1 (stereo partly drawn) [Compound 314, 1-((3R,4R)-4-(2-chlorophenyl)-1-(2,2,2-trifluoroethyl)pyrrolidine-3-carbonyl)-3-fluoro-N-((R,Z)-4-(methylsulfonyl)but-3-en-2-yl)pyrrolidine-3-carboxamide] | 1100 | 622 | – | – | 100 | – | – | –

More lines, main results first:

IC50 (PIK3CA) [nM] | IC50 [1] [nM] | IC50 [2] [nM] | IC50 (PIK3CA_C242) [nM] | SMILES | Emax [1] [%] | Emax [2] [%] | absolute inhibition of pAKT ([1]; H358 cell line, internal standard, variation between runs) | absolute inhibition of pAKT ([2]; FaDu cell line, internal standard, variation between runs)
210 | 202 | 154 | – | Cc1ccc([C@@H]2CN(CC(F)(F)F)C[C@@H]2C(=O)N2CCC[C@](F)(C(=O)N[C@H](C)/C=C\S(C)(=O)=O)CC2)c(Cl)c1 (single isomer, unassigned) [Compound 169, (R)-1-((3*R,4*R)-4-(2-chloro-4-methylphenyl)-1-(2,2,2-trifluoroethyl)pyrrolidine-3-carbonyl)-4-fluoro-N—((R,Z)-4-(methylsulfonyl)but-3-en-2-yl)azepane-4-carboxamide] | 106 | 108 | – | –
210 | 123 | – | – | C[C@H]1C[C@](F)(C(=O)N[C@@H]2C=CS(=O)(=O)C2)CCN1C(=O)[C@H]1CN(CC(C)(F)F)C[C@H]1c1ccccc1Cl (single isomer, unassigned) [Compound 221, (2*S,4*S)-1-((3R,4R)-4-(2-chlorophenyl)-1-(2,2-difluoropropyl)pyrrolidine-3-carbonyl)-N-((R)-1,1-dioxido-2,3-dihydrothiophen-3-yl)-4-fluoro-2-methylpiperidine-4-carboxamide] | 85 | – | – | –
210 | 146 | – | – | C[C@H](/C=C\S(C)(=O)=O)NC(=O)[C@@]1(F)CCCN(C(=O)[C@@H]2CN(CC(C)(F)F)C[C@@H]2c2cccc(F)c2Cl)CC1 (single isomer, unassigned) [Compound 222, (R)-1-((3*S,4*S)-4-(2-chloro-3-fluorophenyl)-1-(2,2-difluoropropyl)pyrrolidine-3-carbonyl)-4-fluoro-N-((R,Z)-4-(methylsulfonyl)but-3-en-2-yl)azepane-4-carboxamide] | 91 | – | – | –
340 | 250 | – | – | C[C@H](/C=C\S(C)(=O)=O)NC(=O)[C@@]1(F)CCCN(C(=O)[C@@H]2CN(CC(F)(F)F)C[C@@H]2c2c(F)cc(F)cc2Cl)CC1 (single isomer, unassigned) [Compound 227, (R)-1-((3*S,4*S)-4-(2-chloro-4,6-difluorophenyl)-1-(2,2,2-trifluoroethyl)pyrrolidine-3-carbonyl)-4-fluoro-N-((R,Z)-4-(methylsulfonyl)but-3-en-2-yl)azepane-4-carboxamide] | 102 | – | – | –
390 | 276 | – | – | C[C@H](/C=C\S(C)(=O)=O)NC(=O)[C@@]1(F)CCCN(C(=O)N2CCN(CC(F)(F)F)C[C@H]2c2ccccc2Cl)CC1 (single isomer, unassigned) [Compound 309, (R)-1-((*R)-2-(2-chlorophenyl)-4-(2,2,2-trifluoroethyl)piperazine-1-carbonyl)-4-fluoro-N—((R,Z)-4-(methylsulfonyl)but-3-en-2-yl)azepane-4-carboxamide] | 91.8 | – | – | –
390 | 165 | – | – | C[C@H](/C=C\S(C)(=O)=O)NC(=O)C1(F)CCN(C(=O)[C@H]2CN(CC(C)(F)F)C[C@H]2c2ccccc2Cl)CC1 [Compound 179, 1-((3R,4R)-4-(2-chlorophenyl)-1-(2,2-difluoropropyl)pyrrolidine-3-carbonyl)-4-fluoro-N-((R,Z)-4-(methylsulfonyl)but-3-en-2-yl)piperidine-4-carboxamide] | 106 | – | – | –
290 | 123 | – | – | C[C@H](/C=C\S(C)(=O)=O)NC(=O)[C@@]1(F)CCCN(C(=O)[C@H]2CN(CC3(F)CC3)C[C@H]2c2ccccc2Cl)CC1 [Compound 185, (R)-1-((3R,4R)-4-(2-chlorophenyl)-1-((1-fluorocyclopropyl)methyl)pyrrolidine-3-carbonyl)-4-fluoro-N-((R,Z)-4-(methylsulfonyl)but-3-en-2-yl)azepane-4-carboxamide] | 95.6 | – | – | –
400 | 642 | – | – | C[C@H](/C=C/S(C)(=O)=O)NC(=O)[C@@]1(F)CCCN(C(=O)[C@H]2CN(CC(F)(F)F)C[C@H]2c2c(F)cccc2Cl)CC1 [Compound 296, (R)-1-((3R,4R)-4-(2-chloro-6-fluorophenyl)-1-(2,2,2-trifluoroethyl)pyrrolidine-3-carbonyl)-4-fluoro-N-((R,E)-4-(methylsulfonyl)but-3-en-2-yl)azepane-4-carboxamide] | 69.4 | – | – | –
